According to patent US9296711B2, “Substituted isoxazole amide compounds as inhibitors of stearoyl-CoA desaturase 1 (SCD1)” (Hoffman-La Roche Inc., priority 2012, dated 2016):

Target: T1, SCD1 (Mus musculus, UniProt P13516)
T1 construct: Mouse liver microsomes, prepared from mice fed a high-carbohydrate diet, were a source of the SCD; from tissue; host or cells: mouse liver microsomes (mice fed a high-carbohydrate diet)
T1 sequence (P13516 1-355): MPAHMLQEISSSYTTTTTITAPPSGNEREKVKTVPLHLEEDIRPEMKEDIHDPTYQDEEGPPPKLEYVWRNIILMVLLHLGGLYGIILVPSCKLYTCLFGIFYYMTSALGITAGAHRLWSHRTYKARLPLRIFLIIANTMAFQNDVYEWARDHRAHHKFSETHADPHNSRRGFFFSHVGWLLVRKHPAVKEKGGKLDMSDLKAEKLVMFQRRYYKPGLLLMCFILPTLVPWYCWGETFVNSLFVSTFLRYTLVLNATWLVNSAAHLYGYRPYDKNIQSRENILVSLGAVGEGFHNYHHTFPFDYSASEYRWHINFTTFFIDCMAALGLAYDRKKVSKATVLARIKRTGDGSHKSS
Experiment: SCD assay: release of tritiated water from desaturation of 9,10-3H-stearoyl CoA by mouse liver microsomes
Format: biochemical
Details: mouse liver microsomes as SCD source; 300 nM (9,10)3H-stearoyl CoA; 25 minutes at room temperature; read-out: IC50 (in vitro inhibition of SCD1)
Description: Stearoyl CoA desaturase activity was monitored by a modification of the acyl carrier protein assay described by B. R. Talamo and K. Bloch in Anal. Biochem. 1968, 29, 300-304. The SCD assay monitors the release of tritiated water from the desaturation of 9,10-^3H-stearoyl CoA.
Mouse liver microsomes, prepared from mice fed a high-carbohydrate diet, were a source of the SCD and cyt b5 and cyt b5 reductase, necessary accessory proteins for the coupled reaction. Reaction mixtures for compound titrations contained 50 mM Tris HCl pH 7.5, 100 mM NaCl, 0.165 mg/ml BSA, 2.4% DMSO, 1 mM NADH, 0.03% T-20, and 300 nM (9,10)^3H-stearoyl CoA (Perkin-Elmer). Reactions were initiated upon the addition of 4 ug/ml SCD microsomes. Incubations were terminated after 25 minutes at room temperature with cold 6% TCA. After standing 10 minutes at 4° C., samples were centrifuged 15 minutes at 4000 rpm to pellet precipitated protein. Supernatants were added to microtiter plates containing suspensions of activated charcoal (Darco G-60, Fisher Scientific) and mixed by inversion. Plates were then centrifuged to separate ^3H—H2O product from charcoal-bound reactants. Supernatants were quantitated in a Perkin Elmer Topcount 384 after solubilization in ScintiSafe Plus 50% (Fisher Scientific).
Inhibition (%) of SCD activity by compounds was calculated according to the following formula: % Inhibition=100*[1−(CPMsample−CPMblank)/(CPMtotal−CPMblank)]

SMILES | IC50 [nM]
Cc1cccnc1OCc1ccc(-c2cc(C(N)=O)on2)cc1 [Example 38, 3-[4-(3-Methyl-pyridin-2-yloxymethyl)-phenyl]-isoxazole-5-carboxylic acid amide] | 350
NC(=O)c1cc(-c2ccc(OCc3ccccc3I)cc2)no1 [Example 11, 3-[4-(2-Iodo-benzyloxy)-phenyl]-isoxazole-5-carboxylic acid amide] | 410
NC(=O)c1cc(-c2ccc(OCc3ccccc3Br)cc2)no1 [Example 20, 3-[4-(2-Bromo-benzyloxy)-phenyl]-isoxazole-5-carboxylic acid amide] | 170
Cc1ccccc1COc1ccc(-c2cc(C(N)=O)on2)cc1 [Example 9, 3-[4-(2-Methyl-benzyloxy)-phenyl]-isoxazole-5-carboxylic acid amide] | 460
NC(=O)c1cc(-c2ccc(OCc3c(F)cccc3Cl)cc2)no1 [Example 12, 3-[4-(2-Chloro-6-fluoro-benzyloxy)-phenyl]-isoxazole-5-carboxylic acid amide] | 3100
NC(=O)c1cc(-c2ccc(COc3ccccc3F)cc2)no1 [Example 39, 3-[4-(2-Fluoro-phenoxymethyl)-phenyl]-isoxazole-5-carboxylic acid amide] | 510
NC(=O)c1cc(-c2ccc(OCc3ccccc3C(F)(F)F)c(Cl)c2)no1 [Example 55, 3-[3-Chloro-4-(2-trifluoromethyl-benzyloxy)-phenyl]-isoxazole-5-carboxylic acid amide] | 2700
Cc1ccc(F)cc1OCc1ccc(-c2cc(C(N)=O)on2)cc1 [Example 43, 3-[4-(5-Fluoro-2-methyl-phenoxymethyl)-phenyl]-isoxazole-5-carboxylic acid amide] | 55
NC(=O)c1cc(-c2ccc(COc3ccccc3C(F)(F)F)cc2)no1 [Example 36, 3-[4-(2-Trifluoromethyl-phenoxymethyl)-phenyl]-isoxazole-5-carboxylic acid amide] | 260
NC(=O)c1cc(-c2ccc(CN3CCc4ccccc43)cc2)no1 [Example 45, 3-[4-(2,3-Dihydro-indol-1-ylmethyl)-phenyl]-isoxazole-5-carboxylic acid amide] | 31
N#Cc1ccccc1COc1ccc(-c2cc(C(N)=O)on2)cc1 [Example 5, 3-[4-(2-Cyano-benzyloxy)-phenyl]-isoxazole-5-carboxylic acid amide] | 970
NC(=O)c1cc(-c2ccc(OCc3cccc(F)c3)cc2)no1 [Example 16, 3-[4-(3-Fluoro-benzyloxy)-phenyl]-isoxazole-5-carboxylic acid amide] | 450
Cc1cccc(OCc2ccc(-c3cc(C(N)=O)on3)cc2)c1 [Example 27, 3-(4-m-Tolyloxymethyl-phenyl)-isoxazole-5-carboxylic acid amide] | 560
Cc1cc(F)ccc1OCc1ccc(-c2cc(C(N)=O)on2)cc1 [Example 42, 3-[4-(4-Fluoro-2-methyl-phenoxymethyl)-phenyl]-isoxazole-5-carboxylic acid amide] | 280
CCc1ccccc1OCc1ccc(-c2cc(C(N)=O)on2)cc1 [Example 34, 3-[4-(2-Ethyl-phenoxymethyl)-phenyl]-isoxazole-5-carboxylic acid amide] | 210
NC(=O)c1cc(-c2ccc(OCc3ccccc3OC(F)(F)F)cc2)no1 [Example 10, 3-[4-(2-Trifluoromethoxy-benzyloxy)-phenyl]-isoxazole-5-carboxylic acid amide] | 210
Cc1ncccc1OCc1ccc(-c2cc(C(N)=O)on2)cc1 [Example 44, 3-[4-(2-Methyl-pyridin-3-yloxymethyl)-phenyl]-isoxazole-5-carboxylic acid amide] | 1100
COc1ccc(OCc2ccc(-c3cc(C(N)=O)on3)cc2)cc1 [Example 30, 3-[4-(4-Methoxy-phenoxymethyl)-phenyl]-isoxazole-5-carboxylic acid amide] | 3300
NC(=O)c1cc(-c2ccc(COc3ccccc3OC(F)(F)F)cc2)no1 [Example 33, 3-[4-(2-Trifluoromethoxy-phenoxymethyl)-phenyl]-isoxazole-5-carboxylic acid amide] | 470
Cc1ccc(COc2ccc(-c3cc(C(N)=O)on3)cc2)cc1C [Example 4, 3-[4-(3,4-Dimethyl-benzyloxy)-phenyl]-isoxazole-5-carboxylic acid amide] | 2700
NC(=O)c1cc(-c2ccc(Cn3ncc4ccccc43)cc2)no1 [Example 50, 3-(4-Indazol-1-ylmethyl-phenyl)-isoxazole-5-carboxylic acid amide] | 74

Tested on: not given
Experiment: not given
Details: not given

SMILES | melting point [°C]
NC(=O)c1cc(-c2ccc(OCc3cccc(F)c3)cc2)no1 [Example 16, 3-[4-(3-Fluoro-benzyloxy)-phenyl]-isoxazole-5-carboxylic acid amide] | 221 to 222
